Test results: ChEMBL document CHEMBL3885861, “Open TG-GATES”

Organism: Rattus norvegicus
Experiment: Open TG-GATES - Regimen: Single
Format: toxicity, organism-based, Sprague-Dawley
Design: regimen Single, gender Male, age 6 weeks
Details: in vivo, po, route gavage; for APTT / Bas / Eos / Fbg / Hb / Ht / Lym / MCH / MCHC / MCV / Mono / Neu / PT / Plat / RBC / Ret / WBC: tissue Blood; for KIDNEY_L / KIDNEY_R / KIDNEY_TOTAL: tissue Kidney; for LIVER: tissue Liver; for ALP / ALT / AST / BUN / CRE / DBIL / GLC / K / LDH / Na / PL / RALB / TBIL / TC / TG / TP / gamma-GTP: tissue Plasma
[1] = 150 mg/kg, 3 h, dose level Middle
[2] = 150 mg/kg, 6 h, dose level Middle
[3] = 150 mg/kg, 9 h, dose level Middle
[4] = 150 mg/kg, 24 h, dose level Middle
[5] = 450 mg/kg, 3 h, dose level High
[6] = 450 mg/kg, 6 h, dose level High
[7] = 450 mg/kg, 9 h, dose level High
[8] = 450 mg/kg, 24 h, dose level High

## CC(CCc1ccccc1)NCC(O)c1ccc(O)c(C(N)=O)c1 (configuration not stated) [LABETALOL]
[1]
  TERMINAL_BW: 215.7 g
  APTT: 16.5 s
  Bas: 0%
  Eos: 0.8%
  Fbg: 263.6 mg/dL
  Hb: 12.4 g/dL
  Ht: 36.2%
  Lym: 77%
  MCH: 21.9 pg
  MCHC: 34.1%
  MCV: 64.2 fL
  Mono: 3%
  Neu: 18.6%
  PT: 13.3 s
  Plat: 115.1 x10_4/uL
  RBC: 564.6 x10_4/ul
  Ret: 8.3%
  WBC: 77.1 x10_2/uL
  KIDNEY_L: 1 g
  KIDNEY_R: 0.9 g
  KIDNEY_TOTAL: 1.9 g
  LIVER: 9.4 g
  ALP: 1401.4 IU/L
  ALT: 46 IU/L
  AST: 73.6 IU/L
  BUN: 12 mg/dL
  CRE: 0.2 mg/dL
  DBIL: 0.01 mg/dL
  GLC: 207.2 mg/dL
  K: 3.7 meq/L
  LDH: 48.6 IU/L
  Na: 142.2 meq/L
  PL: 125.2 mg/dL
  RALB: 2.5 g/dL
  TBIL: 0.042 mg/dL
  TC: 70 mg/dL
  TG: 49.4 mg/dL
  TP: 5.2 g/dL
  gamma-GTP: 1.4 IU/L
[2]
  TERMINAL_BW: 215.9 g
  APTT: 15.9 s
  Bas: 0%
  Eos: 1%
  Fbg: 269.8 mg/dL
  Hb: 12.5 g/dL
  Ht: 36.5%
  Lym: 74.6%
  MCH: 21.1 pg
  MCHC: 34.3%
  MCV: 61.7 fL
  Mono: 3.6%
  Neu: 20.2%
  PT: 13.1 s
  Plat: 106.3 x10_4/uL
  RBC: 593.6 x10_4/ul
  Ret: 7.9%
  WBC: 81 x10_2/uL
  KIDNEY_L: 0.9 g
  KIDNEY_R: 0.9 g
  KIDNEY_TOTAL: 1.8 g
  LIVER: 8.9 g
  ALP: 1487.8 IU/L
  ALT: 39.4 IU/L
  AST: 71 IU/L
  BUN: 9.4 mg/dL
  CRE: 0.2 mg/dL
  DBIL: 0.01 mg/dL
  GLC: 199.4 mg/dL
  K: 4.2 meq/L
  LDH: 44.8 IU/L
  Na: 142.8 meq/L
  PL: 126 mg/dL
  RALB: 2.4 g/dL
  TBIL: 0.04 mg/dL
  TC: 73.2 mg/dL
  TG: 41.8 mg/dL
  TP: 5.1 g/dL
  gamma-GTP: 1 IU/L
[3]
  TERMINAL_BW: 213.9 g
  APTT: 15.6 s
  Bas: 0%
  Eos: 0.8%
  Fbg: 287.8 mg/dL
  Hb: 12.5 g/dL
  Ht: 37.1%
  Lym: 77.6%
  MCH: 21.8 pg
  MCHC: 33.7%
  MCV: 64.8 fL
  Mono: 1.8%
  Neu: 19.6%
  PT: 13.2 s
  Plat: 106.5 x10_4/uL
  RBC: 572.4 x10_4/ul
  Ret: 8.2%
  WBC: 82.4 x10_2/uL
  KIDNEY_L: 0.9 g
  KIDNEY_R: 0.9 g
  KIDNEY_TOTAL: 1.9 g
  LIVER: 8.7 g
  ALP: 1516.4 IU/L
  ALT: 41.4 IU/L
  AST: 68.4 IU/L
  BUN: 10.2 mg/dL
  CRE: 0.2 mg/dL
  DBIL: 0.01 mg/dL
  GLC: 185.4 mg/dL
  K: 3.9 meq/L
  LDH: 42.4 IU/L
  Na: 144.6 meq/L
  PL: 136.6 mg/dL
  RALB: 2.6 g/dL
  TBIL: 0.036 mg/dL
  TC: 77.8 mg/dL
  TG: 56.6 mg/dL
  TP: 5.5 g/dL
  gamma-GTP: 1.2 IU/L
[4]
  TERMINAL_BW: 223.2 g
  APTT: 14.8 s
  Bas: 0%
  Eos: 1%
  Fbg: 345.2 mg/dL
  Hb: 13.1 g/dL
  Ht: 38.4%
  Lym: 71.6%
  MCH: 21 pg
  MCHC: 34.2%
  MCV: 61.4 fL
  Mono: 3.8%
  Neu: 23%
  PT: 12.7 s
  Plat: 116.5 x10_4/uL
  RBC: 625.6 x10_4/ul
  Ret: 8.2%
  WBC: 77.1 x10_2/uL
  KIDNEY_L: 0.9 g
  KIDNEY_R: 0.9 g
  KIDNEY_TOTAL: 1.8 g
  LIVER: 10.1 g
  ALP: 1738.6 IU/L
  ALT: 45.6 IU/L
  AST: 76 IU/L
  BUN: 16.6 mg/dL
  CRE: 0.2 mg/dL
  DBIL: 0.016 mg/dL
  GLC: 180.6 mg/dL
  K: 4.3 meq/L
  LDH: 72.6 IU/L
  Na: 143.2 meq/L
  PL: 159.6 mg/dL
  RALB: 2.6 g/dL
  TBIL: 0.038 mg/dL
  TC: 92 mg/dL
  TG: 96.4 mg/dL
  TP: 5.7 g/dL
  gamma-GTP: 1.2 IU/L
[5]
  TERMINAL_BW: 212.9 g
  APTT: 17.6 s
  Bas: 0%
  Eos: 1%
  Fbg: 255.2 mg/dL
  Hb: 12.2 g/dL
  Ht: 35.8%
  Lym: 76%
  MCH: 21.5 pg
  MCHC: 34.1%
  MCV: 62.9 fL
  Mono: 3.2%
  Neu: 19.4%
  PT: 13 s
  Plat: 109.9 x10_4/uL
  RBC: 569.4 x10_4/ul
  Ret: 8.1%
  WBC: 70.3 x10_2/uL
  KIDNEY_L: 1 g
  KIDNEY_R: 0.9 g
  KIDNEY_TOTAL: 1.9 g
  LIVER: 9.4 g
  ALP: 1740.2 IU/L
  ALT: 47 IU/L
  AST: 73 IU/L
  BUN: 13.2 mg/dL
  CRE: 0.2 mg/dL
  DBIL: 0.01 mg/dL
  GLC: 198.4 mg/dL
  K: 3.9 meq/L
  LDH: 56.8 IU/L
  Na: 142.4 meq/L
  PL: 124 mg/dL
  RALB: 2.4 g/dL
  TBIL: 0.04 mg/dL
  TC: 68.4 mg/dL
  TG: 39.2 mg/dL
  TP: 5.2 g/dL
  gamma-GTP: 1.4 IU/L
[6]
  TERMINAL_BW: 216.2 g
  APTT: 16.6 s
  Bas: 0%
  Eos: 1%
  Fbg: 288.6 mg/dL
  Hb: 12.2 g/dL
  Ht: 36.2%
  Lym: 75.4%
  MCH: 21.9 pg
  MCHC: 33.8%
  MCV: 64.8 fL
  Mono: 2.6%
  Neu: 20.4%
  PT: 12.6 s
  Plat: 112.1 x10_4/uL
  RBC: 561 x10_4/ul
  Ret: 8.2%
  WBC: 89.2 x10_2/uL
  KIDNEY_L: 1 g
  KIDNEY_R: 0.9 g
  KIDNEY_TOTAL: 1.9 g
  LIVER: 9 g
  ALP: 1401.4 IU/L
  ALT: 42.6 IU/L
  AST: 69.8 IU/L
  BUN: 10 mg/dL
  CRE: 0.2 mg/dL
  DBIL: 0.006 mg/dL
  GLC: 188.8 mg/dL
  K: 4.1 meq/L
  LDH: 53.4 IU/L
  Na: 143.4 meq/L
  PL: 131 mg/dL
  RALB: 2.5 g/dL
  TBIL: 0.038 mg/dL
  TC: 78 mg/dL
  TG: 23.2 mg/dL
  TP: 5.2 g/dL
  gamma-GTP: 1 IU/L
[7]
  TERMINAL_BW: 218.2 g
  APTT: 16 s
  Bas: 0%
  Eos: 0.8%
  Fbg: 285 mg/dL
  Hb: 12.8 g/dL
  Ht: 37.5%
  Lym: 75.4%
  MCH: 22.6 pg
  MCHC: 34.1%
  MCV: 66.1 fL
  Mono: 2%
  Neu: 21.4%
  PT: 12.9 s
  Plat: 98.6 x10_4/uL
  RBC: 567 x10_4/ul
  Ret: 8%
  WBC: 90.3 x10_2/uL
  KIDNEY_L: 0.9 g
  KIDNEY_R: 0.9 g
  KIDNEY_TOTAL: 1.8 g
  LIVER: 8.5 g
  ALP: 1515.4 IU/L
  ALT: 49.6 IU/L
  AST: 71.2 IU/L
  BUN: 9 mg/dL
  CRE: 0.2 mg/dL
  DBIL: 0.01 mg/dL
  GLC: 179 mg/dL
  K: 4.2 meq/L
  LDH: 41.2 IU/L
  Na: 144.2 meq/L
  PL: 135 mg/dL
  RALB: 2.5 g/dL
  TBIL: 0.044 mg/dL
  TC: 78 mg/dL
  TG: 30.6 mg/dL
  TP: 5.2 g/dL
  gamma-GTP: 1 IU/L
[8]
  TERMINAL_BW: 219.8 g
  APTT: 15.5 s
  Bas: 0%
  Eos: 1%
  Fbg: 290.8 mg/dL
  Hb: 13 g/dL
  Ht: 38.1%
  Lym: 74%
  MCH: 21.6 pg
  MCHC: 34.2%
  MCV: 62.9 fL
  Mono: 2.6%
  Neu: 22%
  PT: 12.6 s
  Plat: 115.1 x10_4/uL
  RBC: 605.2 x10_4/ul
  Ret: 7.5%
  WBC: 68.4 x10_2/uL
  KIDNEY_L: 1 g
  KIDNEY_R: 0.9 g
  KIDNEY_TOTAL: 1.9 g
  LIVER: 9.6 g
  ALP: 1840.6 IU/L
  ALT: 44 IU/L
  AST: 74 IU/L
  BUN: 17.4 mg/dL
  CRE: 0.2 mg/dL
  DBIL: 0.012 mg/dL
  GLC: 167.8 mg/dL
  K: 4.7 meq/L
  LDH: 55.2 IU/L
  Na: 142.2 meq/L
  PL: 144.8 mg/dL
  RALB: 2.6 g/dL
  TBIL: 0.03 mg/dL
  TC: 88 mg/dL
  TG: 57.8 mg/dL
  TP: 5.6 g/dL
  gamma-GTP: 1.2 IU/L
